Values quoted from earlier work as cited in patent US11013684B2, “Body fluid expanders comprising N-substituted aminosulfonic acid buffers” (AQIX, Ltd., priority 2007, dated 2021).

Legend:
cultured mammalian cells = settings: long term studies
[1] = for −ΔpKa/° C.: aqueous solution, 20° C.

SMILES	toxicity to cultured mammalian cells (cultured mammalian cells)	−ΔpKa/° C. [1]	pKa @ 20° C. ([1]; aqueous solution at 20° C.)
O=S(=O)(O)CCN(CCO)CCO [BES, N,N-bis (2-hydroxyethyl)-2-aminoethanesulfonic acid]	non-toxic	0.016	–
O=C(O)CN(CCO)CCO [BICINE, N,N-bis (2-hydroxyethyl) glycine]	–	0.018	–
O=S(=O)(O)CCN1CCN(CCS(=O)(=O)O)CC1 [PIPES, piperazine-N,N′-bis(2-ethanesulfonic acid)]	–	0.009	6.80
O=C(O)CNC(CO)(CO)CO [TRICINE, N-tris(hydroxymethyl) methylglycine]	–	0.021	–
